Read-outs that look alike come from different tables or passages of the source.
Tests used:
[1] = molecular target: T1, human nicotinic acetylcholine receptor α3β4 (nACHR α3β4) (Homo sapiens, UniProt P30926+P32297); test: calcium influx in HEK293 cells expressing nACHR α3β4, co-applied with nicotine; assay type: cell-based
T1 construct: expressed in transfected cells; host or cells: HEK293
Method: Human cell line HEK293 were designed to express human nicotinic acetylcholine receptor α3β4 (nACHR α3β4), which is a receptor associated with sensory irritation. These cells were plated on 96 well plates and acyl nornicotines were co-applied with a concentration of nicotine sufficient to yield 100% cell activation of the receptor. The influx of calcium into the cell is measured as an indicator of receptor activation.

[2] = test system: nicotine triggered release of CGRP in tracheal tissue; test: nicotine triggered CGRP release in mouse tracheal tissue; assay type: cell-based
Method: Mouse tracheal tissue samples are treated with N-Hexanoylnornicotine (10 μM) for 10 minutes. After five minutes of exposure, Nicotine (100 μM) is added to the tracheal tissue samples for the remaining five minutes of N-Hexanoylnornicotine exposure. CGRP release is measured for 15 minutes starting at the time point of N-Hexanoylnornicotine exposure. Control samples are exposed to Nicotine (100 μM) without the addition of N-Hexanoylnornicotine. […]
(§1) FIGS. 2-8 show the results of studies on the effect of acyl nornicotine on nicotine triggered release of CGRP. CGRP is a biomarker of sensory irritation, specifically a marker of neurogenic inflammation. Tracheal or buccal mouse tissue samples were each treated with N-Hexanoylnornicotine or N-Octanoylnornicotine prior to exposure to nicotine or potassium chloride (KCl), used as a control. The test compounds were provided in a synthetic interstitial fluid and the release of CGRP was measured.

[3] = test system: nicotine triggered release of CGRP in buccal tissue; test: nicotine triggered CGRP release in mouse buccal tissue; assay type: cell-based; conditions: for effect on buccal nicotine response (CGRP release): 20 mM compound, Nicotine 20 mM, equimolar, FIG. 8
Method: Mouse buccal tissue samples are treated with 10 μM or 1 μM of N-Hexanoylnornicotine for 10 minutes. After five minutes of exposure, Nicotine (10 mM) is added to the buccal tissue samples for five minutes. CGRP release is measured for 15 minutes starting at the time point of N-Hexanoylnornicotine exposure. Control samples are exposed to Nicotine (10 mM) without the addition of N-Hexanoylnornicotine.
Mouse buccal tissue samples were treated with N-Hexanoylnornicotine (20 mM) or N-Octanoylnornicotine (20 mM) for 10 minutes. After 5 minutes of exposure, Nicotine (20 mM) was added to the […] tissue samples for five minutes. CGRP release is measured for 20 minutes starting five minutes prior to the time point of N-Octanoylnornicotine and N-Hexanoylnornicotine exposure. Control samples are exposed to Nicotine (20 mM) without the addition of N-Octanoylnornicotine or N-Hexanoylnornicotine.
as §1

[4] = test system: tracheal potassium chloride (KCl) response; test: KCl triggered CGRP release in mouse tracheal tissue (control); assay type: cell-based; conditions: 10 μM compound, KCl 60 mM, FIG. 3
Method: As in FIG. 2, mouse tracheal tissue samples are treated with N-Hexanoylnornicotine (10 μM) for 10 minutes. After five minutes of exposure, KCl (60 mM) is added to the tracheal tissue samples for the remaining five minutes N-Hexanoylnornicotine exposure. CGRP release is measured for 15 minutes starting at the time point of N-Hexanoylnornicotine exposure. Control samples are exposed to KCl (60 mM) without the addition of N-Hexanoylnornicotine.
as §1

[5] = half-tongue test: acyl nornicotine pre-treatment before nicotine solution; assay type: in vivo, human
Method: The effect of pre-treatment with acyl nornicotine on sensory irritation from nicotine was tested using half-tongue test. N-Octanoylnornicotine was applied to tongues of human volunteers prior to application of a nicotine solution. Randomized sides of tongues were selected for application of liquid test sample or liquid control sample on filter paper. The liquid test sample or liquid control sample was applied to one side of a subject's tongue or the other. Blinded N-Octanoylnornicotine or water on filter paper was applied to the subject's tongue for 2 minutes, and then removed. […] After a 30 second wait, filter papers with added nicotine solutions were applied to the spots on the tongue where the pre-treatment filter papers had been applied. Over the following 2 minutes, subjects were asked to note sensory perceptions. Samples containing N-Octanoylnornicotine were at 10% of the level of the nicotine challenge samples.

[6] = HEK293 nACHR α3β4, calcium influx

T1 sequence (P32297 32-505): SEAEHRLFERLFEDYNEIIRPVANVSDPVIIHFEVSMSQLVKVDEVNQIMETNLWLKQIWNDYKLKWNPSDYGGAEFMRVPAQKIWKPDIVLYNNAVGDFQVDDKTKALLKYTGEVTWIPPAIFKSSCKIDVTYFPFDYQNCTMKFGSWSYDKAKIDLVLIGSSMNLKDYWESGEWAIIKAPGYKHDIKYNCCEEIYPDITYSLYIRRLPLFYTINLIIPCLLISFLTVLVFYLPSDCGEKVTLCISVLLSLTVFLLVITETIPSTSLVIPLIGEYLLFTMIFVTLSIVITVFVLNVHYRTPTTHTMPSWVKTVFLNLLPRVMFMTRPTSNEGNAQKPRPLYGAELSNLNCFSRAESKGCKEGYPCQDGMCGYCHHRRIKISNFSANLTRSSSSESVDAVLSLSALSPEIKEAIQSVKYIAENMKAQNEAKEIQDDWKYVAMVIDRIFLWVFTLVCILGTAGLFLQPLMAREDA
T1 sequence (P30926 22-498): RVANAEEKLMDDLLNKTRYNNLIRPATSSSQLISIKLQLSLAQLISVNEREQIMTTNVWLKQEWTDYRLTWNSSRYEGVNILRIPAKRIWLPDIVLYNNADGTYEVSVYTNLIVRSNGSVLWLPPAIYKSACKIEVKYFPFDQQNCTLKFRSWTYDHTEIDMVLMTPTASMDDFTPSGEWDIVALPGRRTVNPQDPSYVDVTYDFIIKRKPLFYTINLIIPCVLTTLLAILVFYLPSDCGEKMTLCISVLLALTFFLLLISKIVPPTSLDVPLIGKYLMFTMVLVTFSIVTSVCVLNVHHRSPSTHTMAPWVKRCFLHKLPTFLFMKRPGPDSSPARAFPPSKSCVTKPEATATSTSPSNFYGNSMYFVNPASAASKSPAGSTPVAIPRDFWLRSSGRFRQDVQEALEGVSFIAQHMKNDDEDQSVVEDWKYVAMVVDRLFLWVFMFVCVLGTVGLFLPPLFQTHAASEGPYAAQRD

calcium influx inhibited ([1]; 1:1 acyl nornicotine:nicotine) [%] | IC50 ([1]; HEK293 nACHR α3β4, calcium influx, v 70 μM nicotine, read-out: Inhibition (IC50 v 70 μM nicotine)) [µM] | Structure (SMILES) | calcium influx inhibited ([1]; 1:10 acyl nornicotine:nicotine) [%] | Activation (threshold) [1, 6] [mM] | effect on specific tracheal nicotine response (CGRP release) ([2]; 10 μM compound, Nicotine 100 μM, FIG. 2) | effect on tracheal supramaximal nicotine response (TRPA1/V1 mediated, CGRP release) ([2]; 10 μM compound, Nicotine 10 mM, FIG. 4) | effect on buccal supramaximal nicotine response (TRPA1/V1 mediated, CGRP release) ([3]; 10 μM compound, Nicotine 10 mM, FIG. 5) | effect on buccal nicotine response (CGRP release) [3] | effect on tracheal KCl response (CGRP release) [4] | IC50 [1] [µM] | calcium influx inhibited ([1]; 1:100 acyl nornicotine:nicotine) [%] | relative potency, C8 versus C6 acyl nornicotine ([1]; calcium influx, co-applied with nicotine) | sensation from the compound itself on the tongue ([5]; applied on filter paper for 2 minutes, human volunteers) | irritation/burn from nicotine after pre-treatment ([5]; compound at 10% of the level of the nicotine challenge, versus water side) | effect on specific tracheal nicotinic response (CGRP release) ([2]; 100 μM compound, Nicotine 100 μM, equimolar, FIG. 6) | effect on basal tracheal response (CGRP release) ([2]; 100 μM compound, before nicotine, FIG. 6) | effect on specific and supramaximal tracheal nicotine response (CGRP release) ([2]; 10 mM compound, Nicotine 10 mM, equimolar, FIG. 7) | relative potency, C8 versus C6 acyl nornicotine ([2]; CGRP release in mouse tissue (tracheal/buccal not specified))
100 | 5 | CCCCCC(=O)N1CCCC1c1cccnc1 (stereo not drawn) [N-Hexanoylnornicotine] | 50 | 10 | abolishes the specific tracheal nicotine response | does not change the tracheal supramaximal nicotine response | does not change the buccal supramaximal nicotine response | prevent the buccal nicotine response | does not change the KCl response |  |  |  |  |  |  |  |  | 
 |  | CCCCCCCC(=O)N1CCCC1c1cccnc1 (stereo not drawn) [N-Octanoylnornicotine] | 100 | 1 |  |  |  | prevent the buccal nicotine response |  | 0.5 | 50 | more potent than shorter chain (C6) acyl nornicotine | tingling or burning sensation | obvious reduction in irritation/burn | abrogates the specific tracheal nicotinic response | lowers basal tracheal nicotine response | abrogates the specific and supramaximal nicotine response | more potent than a shorter chain (C6) acyl nornicotine
